Laboratory results from US11999739B2, “Antimicrobials methods of making and using the same” (BIOVERSYS AG, priority 2016, dated 2024).

Legend:
[1] = tested on: Staphylococcus aureus (S. aureus) 11540 strain; assay: Standard microdilution MIC assay, S. aureus; type: cell-based
Procedure: (§1) The in vitro activity of the compounds of the present disclosure can be determined. Antimicrobial testing is typically performed to determine the minimum inhibitory concentration (MIC). Minimum inhibitory concentrations (MICs) are determined by the microdilution method in a final volume of 100 μl according to protocols outlined by The Clinical and Laboratory Standards Institute (CLSI). Performance standards for reference strains are assessed within the same experimental design to maintain quality control. See, for example, Clinical Laboratory Standards Institute: Methods for dilution antimicrobial susceptibility tests for bacteria that grow aerobically M7-A8. Approved Standard-Eighth Edition. Wayne, PA: CLSI; December 2008; and Clinical Laboratory Standards Institute: Performance Standards for Antimicrobial Susceptibility Testing M100-S20; Approved Standard-Twentieth Edition. Wayne, PA: CLSI; June 2010.
(§2) The compounds of the present disclosure were tested for antimicrobial activity. The Compounds 1-293 were run against Escherichia coli (E co/i) strain ATCC25922 and against Staphylococcus aureus (S. aureus) 11540 strain using a standard microdilution assay to determine minimum inhibitory concentrations (MICs). […] It will be recognized by one skilled in the art that the compounds can be assessed against other bacterial organisms and that the presentation of data for activity against Escherichia coli and Staphylococcus aureus are illustrative and in no way is intended to limit the scope of the present disclosure. The compounds of the present disclosure can be assayed against a range of other microorganisms depending upon the performance activity desired to be gathered. Furthermore, the “+” and “−” representation and the selection of a cutoff value of 16 micrograms/mL is also illustrative and in no way is intended to limit the scope of the present disclosure.

[2] = tested on: Escherichia coli strain ATCC25922; assay: Standard microdilution MIC assay, E. coli; type: cell-based
Procedure: as §1, §2

Row | SMILES | MIC [1] | MIC [2]
1 | C=C[C@@H](CCNC(=N)CF)NCc1ccc(-n2cc3cc(-c4cc(CCC[C@@H](N)CO)cc(Cl)c4F)[nH]c3nc2=O)cc1 [Compound 2] | ≤ 16 µg/mL | ≤ 16 µg/mL
2 | C=C[C@@H](CCNC(C)=N)OCc1ccc(-n2cc3cc(-c4cc(CCC[C@H](C)N)cc(Cl)c4F)[nH]c3nc2=O)cc1 [Compound 3] | ≤ 16 µg/mL | ≤ 16 µg/mL
3 | CC(=N)NCC[C@H]1CNC[C@@H](c2ccc(-n3cc4cc(-c5cc(CCC[C@H](C)N)cc(Cl)c5F)[nH]c4nc3=O)cc2)O1 [Compound 4] | ≤ 16 µg/mL | ≤ 16 µg/mL
4 | C=CC(CCNC(C)=N)NCc1ccc(-n2cc3cc(-c4cc(CCCC(C)(C)N)cc(Cl)c4F)[nH]c3nc2=O)cc1 (stereo not shown) [Compound 6] | ≤ 16 µg/mL | ≤ 16 µg/mL
5 | CC(=N)NCC[C@@H]1CCC[C@@H](c2ccc(-n3cc4cc(-c5cc(CCCC(C)(C)N)cc(Cl)c5F)[nH]c4nc3=O)cc2)N1 [Compound 7] | ≤ 16 µg/mL | ≤ 16 µg/mL
6 | C=CC(CCNC(C)=N)NCc1ccc(-n2cc3cc(-c4cc(CCC[C@@H](N)CO)cc(Cl)c4F)[nH]c3nc2=O)cc1 (stereo partly shown) [Compound 8] | ≤ 16 µg/mL | ≤ 16 µg/mL
7 | C=CC(CCNC(=N)CSC)NCc1ccc(-n2cc3cc(-c4cc(CCC[C@H](C)N)cc(Cl)c4F)[nH]c3nc2=O)cc1 (stereo partly shown) [Compound 9] | ≤ 16 µg/mL | ≤ 16 µg/mL
8 | C=CC(CCNC(=N)CCOCC)NCc1ccc(-n2cc3cc(-c4cc(CCC[C@H](C)N)cc(Cl)c4F)[nH]c3nc2=O)cc1 (stereo partly shown) [Compound 10] | ≤ 16 µg/mL | ≤ 16 µg/mL
9 | C=CC(CCNC(C)=N)NCc1ccc(-n2cc3cc(-c4cc(CCC[C@@H](N)C(F)(F)F)cc(Cl)c4F)[nH]c3nc2=O)cc1 (stereo partly shown) [Compound 11] | ≤ 16 µg/mL | > 16 µg/mL
10 | CC(C)(N)CCCc1cc(Cl)c(F)c(-c2cc3cn(-c4ccc([C@@H]5CCC[C@@H](CCNC(=N)CF)N5)cc4)c(=O)nc3[nH]2)c1 [Compound 12] | ≤ 16 µg/mL | ≤ 16 µg/mL
11 | C=CC(CCNC(=N)CF)NCc1ccc(-n2cc3cc(-c4cc(CCC[C@@H](N)C(F)(F)F)cc(Cl)c4F)[nH]c3nc2=O)cc1 (stereo partly shown) [Compound 13] | > 16 µg/mL | > 16 µg/mL
12 | C=C[C@@H](CCNC(C)=N)NCc1ccc(-n2cc3cc(-c4cc(CCC[C@H](C)N)cc(Cl)c4F)[nH]c3nc2=O)cc1 [Compound 14] | ≤ 16 µg/mL | ≤ 16 µg/mL
13 | C=C[C@@H](CCNC(=N)CCO)NCc1ccc(-n2cc3cc(-c4cc(CCC[C@H](C)N)cc(Cl)c4F)[nH]c3nc2=O)cc1 [Compound 15] | ≤ 16 µg/mL | ≤ 16 µg/mL
14 | C=CC(CCNC(=N)CC(F)(F)F)NCc1ccc(-n2cc3cc(-c4cc(CCC[C@H](C)N)cc(Cl)c4F)[nH]c3nc2=O)cc1 (stereo partly shown) [Compound 16] | ≤ 16 µg/mL | ≤ 16 µg/mL
15 | CC(=N)NCC[C@H](CN)NCc1ccc(-n2cc3cc(-c4cc(CCC[C@H](C)N)cc(Cl)c4F)[nH]c3nc2=O)cc1 [Compound 17] | ≤ 16 µg/mL | ≤ 16 µg/mL
16 | CC(=N)NCC[C@H](CO)NCc1ccc(-n2cc3cc(-c4cc(CCC[C@H](C)N)cc(Cl)c4F)[nH]c3nc2=O)cc1 [Compound 18] | ≤ 16 µg/mL | ≤ 16 µg/mL
17 | CC(=N)NCC[C@H](CNc1ncc[nH]1)NCc1ccc(-n2cc3cc(-c4cc(CCC[C@H](C)N)cc(Cl)c4F)[nH]c3nc2=O)cc1 [Compound 19] | ≤ 16 µg/mL | ≤ 16 µg/mL
18 | C[C@H](N)CCCc1cc(Cl)c(F)c(-c2cc3cn(-c4ccc(CN[C@@H](CN)CCNC(=N)CF)cc4)c(=O)nc3[nH]2)c1 [Compound 20] | ≤ 16 µg/mL | ≤ 16 µg/mL
19 | C[C@H](N)CCCc1cc(Cl)c(F)c(-c2cc3cn(-c4ccc(CN[C@H](CCNC(=N)CF)CNc5ncc[nH]5)cc4)c(=O)nc3[nH]2)c1 [Compound 21] | ≤ 16 µg/mL | ≤ 16 µg/mL
20 | C=CC(CCNC(=N)CF)NCc1ccc(-n2cc3cc(-c4cc(CCCC(C)(C)N)cc(Cl)c4F)[nH]c3nc2=O)cc1 (stereo not shown) [Compound 22] | ≤ 16 µg/mL | ≤ 16 µg/mL
21 | CC(=N)NCC[C@@H]1CCC[C@@H](c2ccc(-n3cc4cc(-c5cc(CCC(C)(C)CN)cc(Cl)c5F)[nH]c4nc3=O)cc2)N1 [Compound 24] | ≤ 16 µg/mL | ≤ 16 µg/mL
22 | CC(C)(CN)CCc1cc(Cl)c(F)c(-c2cc3cn(-c4ccc([C@@H]5CCC[C@@H](CCNC(=N)CF)N5)cc4)c(=O)nc3[nH]2)c1 [Compound 25] | ≤ 16 µg/mL | ≤ 16 µg/mL
23 | C=CC(CCNC(C)=N)NCc1ccc(-n2cc3cc(-c4cc(CCC(C)(C)CN)cc(Cl)c4F)[nH]c3nc2=O)cc1 (stereo not shown) [Compound 26] | ≤ 16 µg/mL | ≤ 16 µg/mL
